From paper PMC3432695 (European journal of medicinal chemistry, 2012)
≈ marks a conversion by molar mass, not a printed value. Where “and” joins values, the source holds several entries; their conditions need not be identical. Identical values can stand only once.

Legend:
Chemical = type: physicochemical; conditions: for t1/2 PBS: PBS pH 7.4, 37 °C, 2 mM
TK1 (+) L929 cells = conditions: cited from earlier work; for in vitro uptake in TK1 (+) L929 cells relative to TK1 (−) L929 cells: 24 h incubation in compound containing medium; for retention in cells: incubation continued for 12 h in compound free medium
[1] = Solubility in PBS at pH 5, pH 6 and pH 7.4; type: physicochemical; conditions: for solubility PBS pH 5: PBS pH 5, 37 °C; for solubility PBS pH 5 / solubility PBS pH 6 / solubility PBS pH 7.4: hydrochloride salts of 12, 15, 18, 21; for solubility PBS pH 6: PBS pH 6, 37 °C; for solubility PBS pH 7.4: PBS pH 7.4, 37 °C; for solubility at 4 h: PBS, 37 °C, thermodynamic from solid
intracranial RG2 glioma = conditions: cited from earlier work
[2] = system: TK1 (+)- or TK1 (−) L929 tumors; conditions: intratumoral injection, subcutaneous tumors in nude mice; cited from earlier work
Stability in Bovine CSF = type: in vitro ADME; conditions: for t1/2 Bovine CSF: 37 °C, 2 mM
Stability = type: in vitro ADME, Bovine; conditions: for t1/2 Bovine serum: 37 °C, 2 mM; for hydrolysis rate in Bovine serum relative to rate in PBS: times faster in Bovine serum than in PBS
[3] = ref Song et al. 15; cited from earlier work
[4] = ref Song et al. 15; cited from earlier work; remark: listed apart in the source
[5] = cited from earlier work

Row | Compound | t1/2 PBS (Chemical) [h] | solubility PBS pH 5 [1] | solubility PBS pH 6 [1] | solubility PBS pH 7.4 [1] | t1/2 Bovine CSF (Stability in Bovine CSF) [h] | t1/2 Bovine serum (Stability) [h] | hydrolysis rate in Bovine serum relative to rate in PBS (Stability) | further results
1 | 3',5'-Di-L-glutam-5-yl-3-(5-{o-carboran-1-yl}pentan-1-yl)thymidine [Compound 19] | 3.42 ± 0.10 |  |  |  |  |  |  | 
2 | 3',5'-Di-L-valyl-3-(5-{o-carboran-1-yl}pentan-1-yl)thymidine [Compound 13] | 12.91 ± 0.17 |  |  |  |  |  |  | 
3 | 3',5'-Di-glycinyl-3-(5-{o-carboran-1-yl}pentan-1-yl)thymidine [Compound 16] | 0.22 ± 0.03 |  |  |  |  |  |  | 
4 | 3'-Glycinyl-3-(5-{o-carboran-1-yl}pentan-1-yl)thymidine [Compound 14] | 1.51 ± 0.11 |  |  |  |  |  |  | 
5 | 3'-L-Glutam-5-yl-3-(5-{o-carboran-1-yl}pentan-1-yl)thymidine [Compound 17] | 26.91 ± 0.71 |  |  |  |  |  |  | 
6 | 3'-L-Valyl-3-(5-{o-carboran-1-yl}pentan-1-yl)thymidine [Compound 11] | 29.79 ± 0.42 |  |  |  |  |  |  | 
7 | 3-(5-{o-Carboran-1-yl}pentan-1-yl)thymidine [Compound 1] |  | 0.003–0.005 g/L | 0.003–0.005 g/L | 0.003–0.005 g/L |  |  |  | in vitro uptake in TK1 (+) L929 cells relative to TK1 (−) L929 cells (TK1 (+) L929 cells): 5–10; retention in cells (TK1 (+) L929 cells): retained only in the former cell line
8 | 3-[5-{2-(2,3-dihydroxyprop-1-yl)-o-carboran-1-yl}pentan-1-yl]thymidine [Compound 2] |  | 0.007–0.01 g/L | 0.007–0.01 g/L | 0.007–0.01 g/L |  |  |  | survival times relative to rats that received BNCT without compound (intracranial RG2 glioma; intracranial injection prior to BNCT, rats with intracranial RG2 glioma): about 2 times; pathologic alterations in rat brains (intracranial RG2 glioma; rat, in vivo): no significant pathologic alterations; boron concentration in TK1 (+) relative to TK1 (−) L929 tumors [2]: ~ 3 times; in vitro uptake in TK1 (+) L929 cells relative to TK1 (−) L929 cells (TK1 (+) L929 cells): 5–10; retention in cells (TK1 (+) L929 cells): retained only in the former cell line
9 | 5'-Glycinyl-3-(5-{o-carboran-1-yl}pentan-1-yl)thymidine [Compound 15] | 0.70 ± 0.04 | 10.99 ± 0.20 g/L | 2.06 ± 0.11 g/L | 0.19 ± 0.01 g/L | 0.96 ± 0.04 | 0.69 ± 0.02 | did not change | 
10 | 5'-Glycinyl-3-[5-(2-{2,3-dihydroxyprop-1-yl}-o-carboran-1-yl)pentan-1-yl]thymidine [Compound 21] | 2.21 ± 0.15 | 11.18 ± 0.21 g/L | 3.60 ± 0.12 g/L | 0.62 ± 0.03 g/L | 2.11 ± 0.14 | 1.51 ± 0.04 | 1.5 times | 
11 | 5'-L-Glutam-5-yl-3-(5-{o-carboran-1-yl}pentan-1-yl)thymidine [Compound 18] | 11.16 ± 0.37 | 1.13 g/L and 1.16 ± 0.04 g/L | 1.13 ± 0.06 g/L | 1.77 ± 0.08 g/L | 1.85 ± 0.11 | 0.85 ± 0.12 | 13.1 times | hydrolysis rate in CSF relative to PBS (Stability in Bovine CSF; times higher in Bovine CSF than in PBS): 6 times
12 | 5'-L-Valyl-3-(5-{o-carboran-1-yl}pentan-1-yl)thymidine [Compound 12] | 25.59 ± 0.61 | 26.30 ± 0.90 g/L | 3.70 ± 0.31 g/L | 1.31 ± 0.05 g/L | 25.47 ± 0.10 | 22.21 ± 0.52 | 1.2 times | solubility relative to compounds 15 and 21 ([1]; PBS pH 5, 6, 7.4): 1–7 times
13 | CC(C)[C@H](N)C(=O)OCCOCn1cnc2c(=O)[nH]c(N)nc21 [Compound 4, valacyclovir, reference compound] |  |  |  |  |  |  | 2.2 times | half-life at 2 mM (Stability in Bovine CSF; bovine, bovine CSF): 7.59 ± 0.12 h; half-life at 2 mM (Chemical; PBS, pH 7.4): 13.6 ± 0.49 h; half-life at 2 mM (Stability; bovine, bovine serum): 6.2 ± 0.17 h; half-life for the hydrolysis in human plasma [3]: 5.2 h; half-life for the chemical hydrolysis [4]: 17.15 h; solubility relative to 12 ([1]; PBS pH 5, 6, 7.4): 1.5–3 times; solubility at 4 h ([1]; pH 5, aqueous buffer): 72.7 ± 0.4 mg/mL (≈ 224 mM); solubility at 4 h ([1]; pH 6, aqueous buffer): 13.4 ± 0.26 mg/mL (≈ 41.4 mM); solubility at 4 h ([1]; pH 7.4, aqueous buffer): 1.91 ± 0.06 mg/mL (≈ 5.89 mM); water solubility relative to parental nucleoside analogue (acyclovir) [5]: about 130 times
